Laboratory results as given in patent US20130064812A1, “COMBINATION THERAPIES FOR HEMATOLOGIC MALIGNANCIES” (Gilead Calistoga LLC, priority 2011, published 2013).
“Also recorded” adds a separate entry of the source. Read-outs that look alike come from different tables or passages of the source.

Tests used:
[1] = system: INA-6 and LB MM cells; assay: Autophagy / AVO development in MM cells; assay type: cell-based, human
Description: To detect and quantify AVOs in compound 1 or 3MA-treated cells, vital staining was performed for 15 min with acridine orange at a final concentration of 1 μg/ml. Samples were examined under a fluorescence microscope.
Autophagosome formation was defined by the accumulation of LC3; arrows indicate autophagosomes, FIG. 33A.
GAPDH served as a loading control.

[2] = system: FL cell lines; assay: PI3K signaling and apoptosis in follicular lymphoma cell lines; assay type: cell-based
[3] = system: LB and INA-6 MM cells with BMSCs; assay: Paracrine MM cell growth, cytokine secretion and signaling with BMSCs; assay type: cell-based, human
Description: MM cells (2×10^4 cells/well) were cultured for 48 h in BMSC coated 96-well plates (Costar, Cambridge, Mass.), in the presence or absence of drug. DNA synthesis was measured by [3H]-thymidine (Perkin-Elmer, Boston, Mass.) uptake, with [3H]-thymidine (0.5μ Ci/well) added during the last 8 h of 48 h cultures. All experiments were performed in quadruplicate.
Cytokine secretion by human BMSCs cocultured with MM cells was assessed by ELISA. […] After 48 h, supernatants were harvested and stored at −80° C. Cytokines were measured using Duo set ELISA Development Kits (R&D Systems, Minneapolis, Minn.). All measurements were carried out in triplicate.
The cytokine levels in culture supernatants were assessed using Proteome Profiler Antibody Arrays Panel A (R&D Systems, Minneapolis, Minn.), Supernatants from co-cultures with BMSCs were incubated for 4 hours with membranes arrayed with Abs against 37 cytokines, according to manufacturer's instructions.
DNA synthesis was determined by [3H]-thymidine incorporation. Data represent means (±SD) of triplicate cultures.
Error bars indicate SD (±).
INA-6 cells cultured with or without BMSCs were treated with compound for 48 h. Total cell lysates were subjected to immunoblotting using indicated antibodies, FIG. 34F. Actin was used as a loading control.

[4] = system: HuVECs; assay: In vitro angiogenesis assay (tube formation); assay type: cell-based, human; conditions: 0, 1.0, or 10 μM, 8 h; p<0.05
Description: HUVEC and endothelial growth media were obtained from Lonza (Walkersville, Md., USA). […] After 8 h, tube formation was evaluated using Leika DM IL microscopy (Leica Microsystems, Wetzlar, Germany) and analyzed with IM50 software (Leica Microsystems Imaging Solutions, Cambridge, UK). HUVEC cell migration and rearrangement was visualized, and the number of branching points counted.
The effect of P110δ inhibition on angiogenesis was investigated.

[5] = molecular target: PIP5Kα (Homo sapiens, UniProt Q99755); assay: InvitroGen Adapta kinase assay, PIP5Kα; assay type: biochemical; conditions: Other Phosphoinositide kinases; head prints no unit
[6] = system: leukemia cell lines; assay: cells; assay type: cell-based; conditions: for apoptosis in leukemia cell lines: 1 μM or 10 μM, 24 hrs; for cellular viability of leukemia cell lines: 24 hours
Description: Proliferation assays (AlamarBlue®) on ALL cell lines grown in the presence of 10% FBS serum and measurements were taken at 24 hrs. Proliferation was measured in triplicate wells in 96-well plates.
The percentage of apoptotic cells was determined by Annexin V-FITC/7AAD staining.

[7] = molecular target: PIP5Kβ (Homo sapiens, UniProt O14986); assay: InvitroGen Adapta kinase assay, PIP5Kβ; assay type: biochemical; conditions: Other Phosphoinositide kinases; head prints no unit
[8] = system: CD19+ cells from CLL patients; assay: mRNA expression in CD19+ CLL cells (RT-PCR); assay type: cell-based, human; conditions: 0.5 μM lenalidomide and/or 10 μM compound, 48 hours
Description: RNA was extracted using TRIzol reagent (Invitrogen) and cDNA was prepared using a SuperScript First-Strand Synthesis System (Invitrogen). Real-Time PCR was performed using pre-designed TaqMan® Gene Expression Assays and ABI Prism 7700 sequence detection system (Applied Biosystems, Foster City, Calif.).
RNA was extracted and converted to cDNA and RT-PCR analysis was done to determine quantities of CD40, CD86 and CD154 mRNA.
Lastly, lenalidomide treatment of CLL cells in culture was tested to determine whether it could promote tumor cell production of vascular endothelial growth factor (VEGF) and basic fibroblast growth factor (b-FGF). […] RNA was extracted and converted to cDNA and RT-PCR analysis was done to determine quantities of bFGF.
RNA was extracted and converted to cDNA and RT-PCR analysis was done to determine quantities of VEGF

[9] = system: CCRF-SB cells; assay: Cell cycle FACS analysis (propidium iodide); assay type: cell-based
Description: Representative fluorescence-activated cell sorting (FACS) analysis of propidium iodide-stained CCRF-SB cells under normal growth conditions, and growth in the presence of the compound of formula I. The average percentage of cells in G0-G1, S, and G2-M phases is calculated in the table below the histographs.

[10] = system: CLL; assay: Previous single-agent study in patients with CLL; assay type: in vivo, human; conditions: single-agent therapy
[11] = system: patient chronic lymphocytic leukemia (CLL) cells; assay: Apoptosis of patient CLL cells (Annexin V-FITC/PI); assay type: cell-based, human
Description: Peripheral blood was obtained from patients with B-CLL through the CLL Research Consortium from Ohio State University. Primary CD19-positive cells were isolated using Rosette-Sep (StemCell Technologies). Cells were maintained in RPMI 1640 (Invitrogen) supplemented with 10% heat-inactivated fetal bovine serum, 2 mmol/L L-glutamine, and penicillin (100 units/mL)/streptomycin (100 μg/mL; Invitrogen) at 37° C., 5% CO2, and high humidity. […] After incubation for 10 minutes at room temperature in a light-protected area, the specimens were quantified by flow cytometry on a FACScan™ (Becton Dickinson).

[12] = system: primary MCL cells and MCL cell lines; assay: PI3K signaling in primary MCL cells and MCL cell lines; assay type: cell-based, human

Chain of PIP5Kα (Q99755 whole entry): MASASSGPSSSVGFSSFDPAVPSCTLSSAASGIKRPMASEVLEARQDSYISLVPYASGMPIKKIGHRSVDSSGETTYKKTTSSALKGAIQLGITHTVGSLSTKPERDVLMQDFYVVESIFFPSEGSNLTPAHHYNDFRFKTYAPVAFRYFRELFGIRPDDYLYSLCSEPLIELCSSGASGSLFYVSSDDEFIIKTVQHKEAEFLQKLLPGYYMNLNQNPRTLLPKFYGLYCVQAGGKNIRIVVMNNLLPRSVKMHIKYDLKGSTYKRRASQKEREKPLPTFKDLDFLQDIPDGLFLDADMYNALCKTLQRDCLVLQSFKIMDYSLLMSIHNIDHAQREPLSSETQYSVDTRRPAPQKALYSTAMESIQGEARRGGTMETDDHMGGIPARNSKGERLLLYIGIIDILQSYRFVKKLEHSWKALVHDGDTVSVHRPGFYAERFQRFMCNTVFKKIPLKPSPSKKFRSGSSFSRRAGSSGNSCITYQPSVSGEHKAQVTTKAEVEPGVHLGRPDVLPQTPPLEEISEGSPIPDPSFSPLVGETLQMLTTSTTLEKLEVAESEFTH
Chain of PIP5Kβ (O14986 whole entry): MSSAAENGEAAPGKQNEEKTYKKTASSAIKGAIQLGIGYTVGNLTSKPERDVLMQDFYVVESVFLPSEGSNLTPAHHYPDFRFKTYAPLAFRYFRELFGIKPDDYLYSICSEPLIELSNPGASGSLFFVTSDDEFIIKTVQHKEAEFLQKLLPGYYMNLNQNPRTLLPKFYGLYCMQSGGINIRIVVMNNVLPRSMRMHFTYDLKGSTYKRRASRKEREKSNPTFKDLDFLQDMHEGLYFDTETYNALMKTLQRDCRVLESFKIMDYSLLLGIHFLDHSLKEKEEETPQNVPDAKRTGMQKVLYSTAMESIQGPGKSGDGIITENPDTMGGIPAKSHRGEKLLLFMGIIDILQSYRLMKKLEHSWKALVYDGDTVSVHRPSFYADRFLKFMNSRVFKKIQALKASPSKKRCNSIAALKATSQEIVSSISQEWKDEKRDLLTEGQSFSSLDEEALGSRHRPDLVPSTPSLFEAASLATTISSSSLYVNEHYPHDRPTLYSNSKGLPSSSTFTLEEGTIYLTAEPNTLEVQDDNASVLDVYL

SMILES: CC[C@H](Nc1ncnc2[nH]cnc12)c1nc2cccc(F)c2c(=O)n1-c1ccccc1 [Compound I, 5-fluoro-3-phenyl-2-[1-(9H-purin-6-ylamino)-propyl]-3H-quinazolin-4-one]
- LC3 staining ([1]; 5 μM, 6 h, INA-6 and LB): markedly increased LC 3 staining
- LC3-II and Beclin1 protein ([1]; INA-6, 6 h): markedly increased LC3-II and Beclin1 protein
- acidic vesicular organelle (AVO) development ([1]; acridine orange staining, LB and INA-6): development of AVOs
- pAkt, Akt, pS6 and S6 in FL cell lines [2]: reduction in the production of pAkt, Akt, pS6 and S6
- cleavage of PARP and Caspase-3 in FL cell lines ([2]; 24 hours, 0.1 μM and 0.5 μM): Cleavage of PARP and Caspase-3 is observed
- MM cell growth and cytokine secretion induced by BMSCs ([3]; 48 h): inhibited growth and cytokine secretion
- phosphorylation of AKT and ERK induced by BMSCs ([3]; INA-6, 48 h): inhibited
- capillary-like tube formation [4]: inhibited capillary-like tube formation in a dose-dependent fashion
- IC50 [5]: > 1000 nM
- apoptosis in leukemia cell lines [6]: increase in apoptosis in the treated cells
- apoptosis in leukemia cell lines ([6]; listed as compound I): induces apoptosis in leukemia cell lines
- cytotoxicity at 10 µM ([6]; 24 h, read-out: reduction of viability): 40 to 50%
- cellular viability of leukemia cell lines [6]: strongly affected by 5-10 micromolar concentrations
- cellular viability of leukemia cell lines ([6]; listed as compound I): reduces cellular viability in a dose dependent manner
- IC50 [7]: > 1000 nM
- VEGF transcription ([8]; N=13): reversible by treatment with the compound of formula I
- b-FGF transcription ([8]; N=15): prevented this up-regulation
- mRNA of CD40, CD86, CD154 and CD80 ([8]; N=15, p<0.009): prevent the increase in mRNA of CD40, CD86, CD154 and CD80 promoted by lenalidomide
- cell cycle [9]: G0/G1 cell cycle arrest
- fraction of patients with CLL with lymphocytosis [10]: ⅔
- lymphocyte redistribution [10]: transient lymphocytosis in patients with CLL
- apoptosis of CLL cells from poor prognosis patients [11]: induced apoptosis was seen
- apoptosis of CLL cells from refractory/relapsed patients [11]: induced apoptosis was also seen to be effective
- apoptosis of CLL patient cells ([11]; 96 hours): dose-dependent cytotoxicity; also recorded: results in apoptosis and the result appears to be dose-dependent
- apoptosis of CLL cells from poor prognosis patients ([11]; listed as compound I): increased apoptosis
- apoptosis of CLL cells from refractory/relapsed patients ([11]; listed as compound of formula I): increased apoptosis
- pAkt in MCL lines exposed to survival factors [12]: significant reduction of pAkt
- constitutive PI3K signaling in primary MCL cells ([12]; two patients, 0.1 μM or 1 μM): block constitutive PI3K signaling in primary MCL cells of two patients in a dose dependent manner
